Experiments:
[1] = Ovalbumin-induced systemic edema method; format: in vivo; conditions: rat, 100 mg/kg orally, one hour prior to and simultaneously with ovalbumin; for Percent decrease (edematous reaction) after two hours: 2 hours; for Percent decrease (edematous reaction) after three hours: 3 hours
Method: b. Ovalbumin-induced systemic edema method
Rats are administered a simultaneous intraperitoneal injection of 1 ml ovalbumin and 0.5 ml of a 1% aqueous Evans Blue solution. On the other hand, the animals of the treated lot are administered orally 100 mg/kg of the test derivative, one hour prior to and simultaneously with the ovalbumin administration. The determinations are effected after 2 hours and after 3 hours. Thus are determined the average intensity of the edema and the percent decrease of the edematous reaction with respect to the controls.

[2] = Acute toxicity, LD50 intravenous route, Miller and Tainter method; conditions: mouse, in vivo, mice, per kg body weight
[3] = Carrageenin-induced localized edema method; format: in vivo; conditions: rat, 100 mg/kg orally per administration; for Percent anti-inflammatory activity after 1 hour: 1 hour after carrageenin; for Percent anti-inflammatory activity after 2 hours: 2 hours after carrageenin; for Percent anti-inflammatory activity after 5 hours: 5 hours after carrageenin
Method: a. Carrageenin-induced localized edema method
A 1% carrageenin solution (0.1 ml) is injected in the metatarsal flexor muscles of the right posterior limb of a rat at time 0 (zero). The animals of the treated lot are additionally given orally 100 mg/kg of the respective test derivatives, one hour prior to and then simultaneously with the injection of the phlogogenic agent, and then one hour and 2.5 hours thereafter. The determinations effected by means of a ROCH micrometer at times 0, 1 hour, 2 hours, 3 hours and 5 hours after carrageenin administration, provide a measure of the percent anti-inflammatory activity, as a function of time.

[4] = Mechanical stimulation method according to Haffner; format: in vivo; conditions: mouse, 100 mg/kg orally
Method: b. Mechanical stimulation method according to Haffner (Deutsch. Wisch., 1959, 55, 731-733)
This method comprises placing a forcipressure forceps at the base of the tail of a mouse and noting the number of self-inflicted bites due to the animal's efforts to remove the forceps. The decrease of the number of bites prior to and after oral administration of the test derivative, at a dosage of 100 mg/kg, provides a measure of the antalgic activity of the derivatives of this invention.

[5] = Acetic acid method (writhing), according to Koster, Anderson and de Beer; format: in vivo; conditions: mice, 100 mg/kg orally, 30 minutes prior to acetic acid i.p.; writhing within following 30 minutes
Source text: a. Acetic acid method, according to Koster, Anderson and de Beer (Fed. Proced., 18, 1959, 412, 1, 626).
Intraperitoneal injection of a dilute acetic acid solution produces, in mice, characteristic repeated writhing movements, under the influence of pain.

[6] = Acute toxicity, LD50 oral route; conditions: mouse, in vivo, per kg body weight
Method: By the oral route, the LD50 /24 hrs/kg body weight is in excess of 300 mg with derivatives n°1 and n°2.

Row | SMILES | Percent decrease (edematous reaction) after two hours [1] [%] | Percent decrease (edematous reaction) after three hours [1] [%] | LD50 at 24 h [2] [mg/kg] | Percent anti-inflammatory activity after 1 hour [3] [%] | Percent anti-inflammatory activity after 2 hours [3] [%] | Percent anti-inflammatory activity after 5 hours [3] [%] | Average percent antalgic activity after 30 min. [4] [%] | Average percent antalgic activity after 1 hr [4] [%] | Average percent antalgic activity after 2 hrs [4] [%] | Average percent antalgic activity after 3 hrs [4] [%] | Percent antalgic activity [5] [%] | LD50 at 24 h [6] [mg/kg]
1 | CC1NCC(O)c2sccc21 (centres unmarked) [Derivative 5, 7-hydroxy-4-methyl-4,5,6,7-tetrahydro-thieno[3,2-c]pyridine] | 52 | 64 | 155 | 41 | 55 | 60 | 76 | 64 | 61 | 52 | 59 | 
2 | CCC1NCC(O)c2sccc21 (centres unmarked) [Derivative 6, 4-ethyl-7-hydroxy-4,5,6,7-tetrahydro-thieno[3,2-c]pyridine] | 49 | 64 | 210 | 39 | 51 | 57 | 71 | 67 | 63 | 58 | 58 | 
3 | CC1NCC(O)c2ccsc21 (centres unmarked) [Derivative 3, 4-hydroxy-7-methyl-4,5,6,7-tetrahydro-thieno[2,3-c]pyridine] | 45 | 56 | 300 | 38 | 47 | 56 | 68 | 62 | 58 | 50 | 55 | 
4 | OC1CNCc2sccc21 (centres unmarked) [Derivative 2, 4-hydroxy-4,5,6,7-tetrahydro-thieno[2,3-c]pyridine] | 56 | 65 | 68 | 43 | 54 | 58 | 76 | 69 | 60 | 54 | 66 | > 300
5 | OC1CNCc2ccsc21 (centres unmarked) [Derivative 1, 7-hydroxy-4,5,6,7-tetrahydro-thieno[3,2-c]pyridine] | 54 | 58 | 75 | 41 | 48 | 53 | 72 | 68 | 62 | 55 | 63 | > 300
6 | CCC1NCC(O)c2ccsc21 (centres unmarked) [Derivative 4, 7-ethyl-4-hydroxy-4,5,6,7-tetrahydro-thieno[2,3-c]pyridine] | 54 | 62 | 285 | 43 | 51 | 59 | 74 | 65 | 60 | 52 | 61 | 
